Results as given in PubChem BioAssay AID2165 (The Scripps Research Institute Molecular Screening Center, 2009).
The source made the active and inactive calls. Cut-off read from the data, not from the text of the source: active = IC50 below about 9 µM; inactive = the rest.

Biological target: Tyrosine-protein kinase JAK2 (Homo sapiens) (UniProt O60674)
Assay: JAK2V617F project follow-up: kinase, reporter, cytotoxicity – HEL and Ba/F3 cells, late-stage follow-up (AID 2165)
Conditions: JAK2V617F panel: kinase, IRF1 reporter

Tyrosine-protein kinase JAK2 (Homo sapiens), sequence (O60674 whole entry, looked up, change not shown): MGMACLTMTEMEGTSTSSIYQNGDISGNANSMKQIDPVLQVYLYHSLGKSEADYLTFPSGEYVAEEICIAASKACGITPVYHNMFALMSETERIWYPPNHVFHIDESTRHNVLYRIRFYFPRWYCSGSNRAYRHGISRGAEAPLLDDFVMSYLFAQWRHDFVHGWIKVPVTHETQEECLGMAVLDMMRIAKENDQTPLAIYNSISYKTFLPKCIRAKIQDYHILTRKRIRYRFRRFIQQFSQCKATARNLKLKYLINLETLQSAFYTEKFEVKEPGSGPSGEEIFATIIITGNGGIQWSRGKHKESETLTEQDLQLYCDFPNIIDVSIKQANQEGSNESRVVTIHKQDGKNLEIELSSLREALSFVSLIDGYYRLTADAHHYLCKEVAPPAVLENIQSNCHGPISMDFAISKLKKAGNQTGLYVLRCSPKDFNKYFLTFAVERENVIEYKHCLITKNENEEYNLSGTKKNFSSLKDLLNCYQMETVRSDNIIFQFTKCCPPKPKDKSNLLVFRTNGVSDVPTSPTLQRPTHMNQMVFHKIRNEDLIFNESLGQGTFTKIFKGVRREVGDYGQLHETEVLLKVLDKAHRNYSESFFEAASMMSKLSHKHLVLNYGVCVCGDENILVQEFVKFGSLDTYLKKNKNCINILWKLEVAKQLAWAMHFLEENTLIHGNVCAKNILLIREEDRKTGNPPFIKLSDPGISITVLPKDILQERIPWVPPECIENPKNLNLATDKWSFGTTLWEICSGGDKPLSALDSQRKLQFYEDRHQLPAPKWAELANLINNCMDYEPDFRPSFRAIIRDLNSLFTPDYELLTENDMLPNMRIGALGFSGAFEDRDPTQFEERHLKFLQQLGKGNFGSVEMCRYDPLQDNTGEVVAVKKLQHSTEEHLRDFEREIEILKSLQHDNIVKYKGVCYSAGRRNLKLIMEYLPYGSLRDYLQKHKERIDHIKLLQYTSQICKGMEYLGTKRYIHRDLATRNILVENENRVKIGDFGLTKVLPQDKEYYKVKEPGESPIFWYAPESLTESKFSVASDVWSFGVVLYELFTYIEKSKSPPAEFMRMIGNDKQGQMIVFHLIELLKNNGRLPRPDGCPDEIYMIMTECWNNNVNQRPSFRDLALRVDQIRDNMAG

| SMILES | IC50 (HEL, irf1 reporter) | IC50 (JAK2V617F) | IC50 (Ba/F3, irf1 reporter) |
| --- | --- | --- | --- |
| COc1cc2ncnc(NC3CCCCC3)c2cc1OC | 5.22 µM | > 40 µM (inactive) |  |
| Cc1ccc(O)c(NC(=O)COc2ccccc2C)c1 |  | > 40 µM (inactive) |  |
| COCCOc1cc2ncnc(Nc3cccc(C#Cc4ccc(O)cc4)c3)c2cc1OCCOC | 0.0948 µM | 2.74 µM |  |
| CCOc1cc2ncnc(Nc3cccc(Br)c3)c2cc1OCC | 2.59 µM | 7.12 µM | 2.36 µM |
| Cc1[nH]c(=O)c(C(=O)C=Cc2ccc(Cl)cc2)c2c1CCCC2 | 0.96 µM | 2.64 µM | 1.07 µM |
| COCCOc1cc2nc[nH]c(=O)c2cc1OCCOC | > 40 µM (inactive) | > 40 µM (inactive) |  |
| COc1cc2ncnc(Nc3ccc(F)c(F)c3)c2cc1OC | > 40 µM (inactive) | > 40 µM (inactive) |  |
| Cc1cccc(OCC(=O)Nc2cc(C)c(C)cc2O)c1 |  | > 40 µM (inactive) |  |
| COc1cc2ncnc(Nc3cccc(C)c3)c2cc1OC | 7.18 µM | > 40 µM (inactive) |  |
| Cc1[nH]c(=O)c(C(=O)C=Cc2ccc(Br)cc2)c2c1CCCC2 | 1.03 µM | 3.64 µM | 0.98 µM |
| O=C(COc1ccccc1)Nc1ncccn1 | > 40 µM (inactive) | > 40 µM (inactive) |  |
| Cc1ccc(O)c(NC(=O)COc2ccc(C3CCCCC3)cc2)c1 |  | > 40 µM (inactive) |  |
| Oc1ccc(/C=N/N2CCN(C3c4ccccc4-c4ccccc43)CC2)cc1O | 5.15 µM |  | 2.47 µM |
| N#CC(C#N)=Cc1ccc(O)c(O)c1 | > 40 µM (inactive) | > 40 µM (inactive) | 0.24 µM |
| COC(=O)COc1cccc2c(=O)n(CC(=O)NCc3ccc(F)cc3)ccc12 | 7.33 µM |  | 16.3 µM |
| CC(C)(C)OC(=O)N[C@@H](Cc1ccccc1)c1nnc(S(=O)(=O)Cc2cccc(F)c2)o1 | 26.3 µM |  | 0.904 µM |
| N#C/C(=C\c1ccc(O)c(O)c1)C(=O)NCCCCc1ccccc1 | 3.31 µM | 0.76 µM | 0.25 µM |
| COc1ccc(Nc2ccc3c(c2)=NC2(CCCCC2)[N+]=3[O-])cc1 | 5.14 µM |  | 5.6 µM |
| COc1ccc2nc(C)cc(Sc3nc4ccccc4s3)c2c1 | 11 µM |  | 2.98 µM |
| CC(C)(C)/C(O)=C/c1nc2cc(Cl)ccc2oc1=O | 12.6 µM |  | 4.13 µM |
| O=C(CCl)N(C/C=C/c1ccccc1)c1ccc2c(c1)OCCO2 | 12 µM |  | 0.499 µM |
| CCC(C)c1ccc(OCC(=O)Nc2cc(C)ccc2O)cc1 (centres undefined) |  | 33.2 µM |  |

| SMILES | IC50 (HEL, irf1 reporter) | IC50 (JAK2V617F) | IC50 (Ba/F3, irf1 reporter) |
| --- | --- | --- | --- |
| Cc1ccc(O)c(NC(=O)COc2ccc(Cl)cc2)c1 |  | 1.51 µM |  |
| COc1ccc(N2CCc3c(C)nc4c(OC)cc(OC)cc4c32)c(OC)c1 |  |  | 7.67 µM |
| Cc1nc([N+](=O)[O-])c(Br)n1CC(=O)c1ccc2ccccc2c1 | 21.1 µM |  | 5.1 µM |
| Cc1nnc(NC(=O)COc2ccccc2)s1 | > 40 µM (inactive) | > 40 µM (inactive) |  |
| Cc1nc([N+](=O)[O-])c(Br)n1Cc1ccc(Cl)c(Cl)c1 | 4.58 µM |  | 2.62 µM |
| Cc1cc(C)c(C(=O)/C=C/c2ccccc2F)c(=O)[nH]1 | 1.17 µM | 0.71 µM | 24 µM |
| COc1ccc(Nc2nc(N)nc(CCl)n2)cc1 | 3.96 µM |  | > 40 µM (inactive) |
| Cc1ccc(O)c(NC(=O)COc2ccccc2Cl)c1 |  | 0.0247 µM |  |
| Cc1cccc(OCC(=O)Nc2cccc(O)c2)c1 | > 40 µM (inactive) | > 40 µM (inactive) |  |
| O=c1cnn([C@@H]2O[C@H](CO)[C@@H](O)[C@H]2O)c(=O)[nH]1 | > 40 µM (inactive) |  | > 40 µM (inactive) |
| Cc1ccc(O)c(NC(=O)COc2cc(C)ccc2C)c1 |  | 2.23 µM |  |
| CCCCCCN(C(=O)CCl)c1ccccc1 | 8.71 µM |  | 3.62 µM |
| COc1ccc(C=CC(=O)c2c3c(c(C)[nH]c2=O)CCCC3)cc1 | > 40 µM (inactive) | 6.94 µM | > 40 µM (inactive) |
| COc1cc(/C=C(\C#N)C(N)=O)cc(CSc2nc3ccccc3s2)c1O | 4.15 µM | 6.78 µM | 3.35 µM |
| Cc1ccc(O)c(NC(=O)COc2ccc(F)cc2)c1 |  | 21.8 µM |  |
| Cc1ccc(O)c(NC(=O)COc2cccc(C)c2C)c1 |  | > 40 µM (inactive) |  |
| O=C(Nc1cccc2c1[nH]c1ccccc12)C(F)(F)F | 3.68 µM |  | 18.9 µM |
| COc1cccc(F)c1C(C[N+](=O)[O-])c1c(N)n(C)c(=O)n(C)c1=O (centres undefined) | 9.37 µM |  | 5.77 µM |
| COc1cc2ncnc(Nc3ccc(O)c(Br)c3)c2cc1OC | 2.98 µM | 30.3 µM | 2.18 µM |
| COc1cc2ncnc(Nc3ccc(OC(F)(F)F)cc3)c2cc1OC | 3.77 µM | > 40 µM (inactive) |  |
| CCOc1ccc(C(=O)C(CN2CCOCC2)c2ccccc2)cc1 (centres undefined) | 11 µM |  | 16.6 µM |
| Nc1nc(N)c2nc(-c3ccccc3)c(N)nc2n1 | > 40 µM (inactive) |  | > 40 µM (inactive) |

| SMILES | IC50 (HEL, irf1 reporter) | IC50 (JAK2V617F) | IC50 (Ba/F3, irf1 reporter) |
| --- | --- | --- | --- |
| Cc1ccc(C=CC(=O)c2c3c(c(C)[nH]c2=O)CCCC3)cc1 | 23.9 µM | 3.38 µM | 6.04 µM |
| Cc1c(Cc2ccccc2)c(=O)oc2c(O)c(O)ccc12 | 31.9 µM |  | 6.58 µM |
| Cc1nn(Cc2ccc(Cl)cc2Cl)c(C)c1NC(=O)CCl | 8.61 µM |  | 8.77 µM |
| Cc1[nH]c(=O)c(C(=O)C=Cc2ccc(C(C)C)cc2)c2c1CCCC2 | 6.33 µM | 2.29 µM | 0.84 µM |
| Cc1ccc(O)c(NC(=O)COc2ccc(C)c(C)c2)c1 |  | > 40 µM (inactive) |  |
| [O-][N+]1=c2ccc(Nc3ccccc3)cc2=NC12CCCCC2 | 7.02 µM |  | 5.15 µM |
| CNC(=O)c1nnsc1S(=O)c1ccc(Cl)cc1 (centres undefined) | 12.1 µM |  | 0.199 µM |
| COc1cc2ncnc(NC(C)C)c2cc1OC | > 40 µM (inactive) | > 40 µM (inactive) |  |
| Cc1cccc(OCC(=O)Nc2cccc(C)c2C)c1 |  | > 40 µM (inactive) |  |
| COCCOc1cc2ncnc(Nc3cccc(C#Cc4ccc(-c5ccccc5)cc4)c3)c2cc1OCCOC | > 40 µM (inactive) | 3.81 µM |  |
| O=C(/C=C/c1ccc(O)c(O)c1)c1ccc(S(=O)(=O)N2CCCCCC2)cc1 | > 40 µM (inactive) |  | 2.33 µM |
| Cc1[nH]c(=O)c(C(=O)C=Cc2ccc(Cl)cc2Cl)c2c1CCCC2 | 2.57 µM | 1.43 µM | 0.53 µM |
| Cc1ccc(NC(=O)C(=Cc2ccc(C(=O)O)cc2)C(=O)Nc2ccc(C)cc2C)c(C)c1 | 2.8 µM |  | 2.9 µM |
| CC1CCCN(CCCNC(=O)c2cc3c(Cl)nc4ccccc4c3s2)C1 (centres undefined) | > 40 µM (inactive) |  | 11.6 µM |
| COc1ccc(C)cc1NC(=O)Nc1ccc(Br)cn1 | > 40 µM (inactive) | > 40 µM (inactive) |  |
| CS(=O)(=O)c1nc(-c2ccco2)cc(C(F)(F)F)n1 | 7.42 µM |  | 0.869 µM |
| COc1ccc(OC)c(NS(=O)(=O)c2ccc(SC)cc2)c1 | > 40 µM (inactive) |  | 22.9 µM |
| COc1ccc(OCC(=O)Nc2cc(C)ccc2O)cc1 |  | 3.4 µM |  |
| Nc1nc(CCl)nc(N(c2ccccc2)c2ccccc2)n1 | 2.64 µM |  | 14.3 µM |
| O=C1/C(=C/c2ccc(O)c(O)c2)SC(=S)N1Nc1ccccc1 | 10.2 µM |  | 4.04 µM |
| COc1ccc(C2=Nn3c(nnc3C3CCCCC3)SC2)cc1OC | 13.3 µM |  | 8.93 µM |
| COc1cc(C=C(C#N)C(N)=O)cc(CSc2ccccc2)c1O | > 40 µM (inactive) | > 40 µM (inactive) | > 40 µM (inactive) |

| SMILES | IC50 (HEL, irf1 reporter) | IC50 (JAK2V617F) | IC50 (Ba/F3, irf1 reporter) |
| --- | --- | --- | --- |
| Cc1cccc(Nc2nc(N)nc(CCl)n2)c1C | 1.17 µM |  | 14.9 µM |
| COc1cc2ncnc(N[C@H](C)c3ccccc3)c2cc1OC | 13.1 µM | 3.18 µM |  |
| COc1ccc(-c2cc(-c3cc(C)ccc3O)[nH]n2)cc1 | 1.82 µM |  | 7.06 µM |
| N#CC(=Cc1ccc(O)c(O)c1)C(=S)NCc1ccccc1 | > 40 µM (inactive) | 1.92 µM | 0.62 µM |
| COc1cc(/C=C2\COC/C(=C\c3ccc(O)c(OC)c3)C2=O)ccc1O | 7.86 µM |  | 1.99 µM |
| O=C(O)c1[nH]c(=O)[nH]c(=O)c1F | > 40 µM (inactive) |  | > 40 µM (inactive) |
| c1ccc2c(c1)CSc1sccc1C2=C1CCNCC1 | > 40 µM (inactive) |  | 5.89 µM |
| Clc1cccc(Nc2ncnc3ccccc23)c1 | > 40 µM (inactive) | > 40 µM (inactive) |  |
| C/C(=C\c1ccc(N(C)C)cc1)[N+](=O)[O-] | 4.29 µM |  | 2.65 µM |
| N#Cc1ccccc1NC(=O)COc1ccc2c(c1)OCO2 | > 40 µM (inactive) | > 40 µM (inactive) |  |
| Cc1cc(C)cc(NC(=O)COc2cccc(C)c2)c1 |  | > 40 µM (inactive) |  |
| Cc1[nH]c(=O)c(C(=O)C=Cc2ccccc2Cl)c2c1CCCC2 | 0.53 µM | 0.13 µM | 0.214 µM |
| c1ccc(CCNc2nc(-c3ccccn3)nc3ccccc23)cc1 | 2.88 µM |  | 5.49 µM |
| COc1cccc(Nc2ncnc3cc(OC)c(OC)cc23)c1 | 3.54 µM | > 40 µM (inactive) |  |
| Cc1ccc(Nc2nc(N)nc(CCl)n2)cc1 | 5.6 µM |  | 12.7 µM |
| CCN1C/C(=C/c2ccc(OC)c(O)c2)C(=O)/C(=C/c2ccc(OC)c(O)c2)C1 | 2.75 µM |  | 2.36 µM |
| Cc1cc2[nH]c3c(c[n+](C)c4ccccc34)c2cc1C | 7.35 µM |  | 7.72 µM |
| Cc1cccc(OCC(=O)Nc2ccc(C)c(C)c2)c1 |  | > 40 µM (inactive) |  |
| COc1cc2ncnc(Nc3cccc(Cl)c3)c2cc1OC | > 40 µM (inactive) | > 40 µM (inactive) |  |
| O=C(CCl)NC(=O)NC12CC3CC(CC(C3)C1)C2 | 7.9 µM |  | 3.56 µM |
| O=C(Oc1cccc2c(O)cccc12)c1ccccc1 | > 40 µM (inactive) |  | 8.18 µM |
